Experimental data reported in patent US20240016875A1, “SHAN-ZHA FOR THE TREATMENT OF DEPRESSION AND ANXIETY DISORDERS” (THE OPEN UNIVERSITY, priority 2020, published 2024).
“Also recorded” adds a separate entry of the source.

Key:
stressed mice [1] = assay: Elevated plus maze (EPM), UCMS-stressed mice, Examples 1-3; type: in vivo; settings: UCMS-stressed male ICR mice; herbs and NHT 30 mg/kg, escitalopram 15 mg/kg i.p., 3 weeks; vs vehicle
Description: ICR outbred 28-30 days old male mice (Envigo, Israel) were maintained in the vivarium of the Open University lab in Hadassah Ein Karem medical cement, Jerusalem. Mice were group housed (5 mice per cage) and each cage contained mice from all treatment groups. Mice were given ad libitum access to food and water except during stressor application (with the exclusion of the light/dark cycle reversal). Mice kept on a reversed 12 h light/dark cycle (lights on 7:00 pm-7:00 am) while experimental procedures were performed during the dark phase under red light. All experiments were approved by the Open University of Israel committee for animal care and use. Methods were carried out in accordance with the NIH guidelines.
The EPM task was performed as previously described [6]. Shortly, each mouse was placed in the center of the maze and video recorded for 5 min. Anxiety-like behavior was expressed as the time the mouse spent in the open, unprotected arms of the maze. […]

stressed mice [2] = assay: Tail suspension test (TST), UCMS-stressed mice, Examples 1-3; type: in vivo; settings: UCMS-stressed male ICR mice; herbs and NHT 30 mg/kg, escitalopram 15 mg/kg i.p., 3 weeks; vs vehicle
stressed mice [3] = assay: Evaluation of sexual function (number of mounts), stressed mice; type: in vivo; settings: UCMS-stressed male mice, 30 min with female in estrus, Shan-zha and NHT 30 mg/kg, escitalopram 15 mg/kg i.p., 3 weeks, vs vehicle
Description: Crataegus pinnatifida, Triticum aestivum, Lilium brownii and Fructus zizyphi jujuba were purchased as freeze-dried granules (KPC Products, Inc., Irvine, CA, USA). Each herb was dissolved in saline with 1% dimethylsulfoxide (DMSO) to a final concentration of 0.47 mg/ml and injected i.p. individually (30 mg/kg) or with the other components to form the formula (NHT, 30 mg/kg). […] Vehicle treatment included i.p. injection of saline with 1% DMSO. All treatments were carried out for 3 weeks. Each male mouse was placed with a female mouse in estrus in the male's home cage during the dark phase under red dim light for 30 min. Number of mounts were coded by an observer blind to the treatment.

21 days old pups = assay: EPM in 21 days old pups treated via lactation; type: in vivo, mice
Description: The EPM task was performed as previously described. Shortly, each mouse was placed in the center of the maze and video recorded for 5 min. Anxiety-like behavior was expressed as the time the mouse spent in the open, unprotected arms of the maze.
Female (n=40) and male (n=5) ICR outbred mice (100 days old; Envigo RMS, Jerusalem, Israel) were housed at 22±1° C. under 12 h light/dark cycles in the vivarium of the Open University lab in Hadassah medical center, Jerusalem. Mice had ad libitum access to rodent chow and water. Mice were housed in standard cages with a bed of woodchips and a piece of cotton wool for enrichment. All experiments were performed during the dark phase of the cycle. Male mice were used to father pups and were housed apart (5 per cage) from females until mating. […] Once a vaginal plug was identified, the females were transferred to a separate cage until parturition. Overall, 455 pups were delivered of which 317 (male: n=165; female: n=152) were designated for this study. Unassessed pups were maintained with littermates to avoid additional stress and ensure similar conditions. […]
Following mating, dams were separated to individual cages and were observed periodically to ensure onset of pregnancy. […] Shortly after, anxiety-like behavior was assessed on the EPM and dams were assigned to treatment group (escitalopram/shan-zha/vehicle). […]

Ckb gene = assay: Hippocampal RNA-sequencing, gene expression after UCMS; type: in vivo; settings: hippocampus; UCMS mice; Shan-zha 30 mg/kg, escitalopram 15 mg/kg, 3 weeks; vs UCMS-exposed saline treated group
Description: (§1) An Unbiased genome-wide transcriptomic profiling was conducted to reveal alterations in gene expression in the hippocampus induced by treatment. Male ICR mice were subjected to UCMS, after which they were treated with Shan-zha (30 mg/kg), NHT (30 mg/kg), Esciatlopram (15 mg/kg) or saline for 3 weeks. The anxiolytic-like effect of the treatments was verified by EPM. Subsequently, brains were rapidly removed and RNA was isolated from the hippocampus using RNeasy kit (Qiagen). RNA-sequencing (on NGS) and gene expression analysis was conducted. The analysis yielded a wide range of changes in gene expression.
(§2) First, all samples were normalized and clustered in order to verify that there are no noticeable biases based on batches/process/technician/day.. Next, hit maps were generated, in order to observe the global differences between the groups. After which, a PCA analysis was performed to visualize the separation between the samples. Finally, Differential expression analysis with DESE-Q was done, and changes in gene expression of the following genes, which are highly relevant to anxiety, depression or drug-related side effects were followed: […]

rab11B gene = assay: as above; type: in vivo; settings: hippocampus; UCMS mice; Shan-zha 30 mg/kg, escitalopram 15 mg/kg, 3 weeks; vs UCMS-exposed saline treated group
Description: as §1, §2

stressed mice [4] = assay: EPM, UCMS-stressed mice, Example 7; type: in vivo
Description: Animals. ICR outbred mice (Envigo RMS (Harlen), Israel) are kept in the vivarium of the Open University lab in Hadassah medical center, Jerusalem. Mice are kept on a reversed 12 h light/dark cycle and given ad libitum access to food and water. All experiments are performed during the dark phase under red light (7:00-19:00). All experiments have been approved by the committee for animal care and use according to the NIH guidelines. Drugs. Drugs are dissolved in saline and 1% DMSO to the desired concentration and administered i.p. Herbal mixture and Shan-zha (30 mg/kg) will be prepared by dissolving each component (KPC Products, Inc., CA, USA) to a final concentration of 0.47 mg/ml. […] Unpredictable chronic mild stress (UCMS). Mice are exposed to UCMS for 4 weeks at the age of 4 weeks as previously described. Elevated plus maze (EPM). This task is based on the natural tendency of mice to avoid open and elevated places. EPM are performed as previously described. Anxiety-like behavior are expressed as the time the animal spent in the open, unprotected arms of the maze.

Q: Which results are given for `CN(C)CCC[C@@]1(c2ccc(F)cc2)OCc2cc(C#N)ccc21` [escitalopram]?
A: time spent in the open arms of the EPM (anxiety-like behavior) (stressed mice [1]): spent more time in the open arms of the maze in comparison with vehicle-treated mice; also recorded: reduced anxiety-like behavior in the EPM compared to vehicle; time spent immobile in the TST (depressive-like behavior) (stressed mice [2]): spent less time immobile in comparison with vehicle-treated mice; also recorded: reduced depressive-like behavior in the Tail suspension test (TST) compared to vehicle; sexual function (number of mounts) (stressed mice [3]): significantly reduced sexual function compared to vehicle; sexual function (number of mounts) (stressed mice [3]; listed as Escitalopram): lower number of mounts in comparison with vehicle-treated mice; stress-induced anxiety-like behavior within treatment group, pups (21 days old pups; PND21, stressed vs naive pups): No similar stress-induced anxiety-like behavior was observed; anxiety-like behavior in the EPM, treated stressed pups vs saline-treated stressed pups (21 days old pups; PND21, prenatal stress, treatment via lactation, dams 15 mg/kg s.c. daily): saline-treated stressed pups demonstrated elevated anxiety-like behavior compared to both shan-zha- and escitalopram-treated stressed pups; also recorded: the stress-vehicle group demonstrated increased anxiety-like behavior compared to the naïve-vehicle, stress-escitalopram and stress-shan-zha groups; Ckb gene expression (Ckb gene): 0.83 fold change; RAB11b gene expression (rab11B gene): 0.77 fold change; anxiety-like behavior in the EPM (stressed mice [4]; stressed mice, 30 mg/kg (escitalopram 15 mg/kg) i.p., 3 weeks, vs vehicle): exhibited reduced anxiety-like behavior in the EPM compared to vehicle-treated stressed mice; time (seconds) spent in open arms in the EPM, FIG. 22 experiment (stressed mice [4]; vs saline, fractions SZ 50% and SZ 20% at 3 mg, listed as Escitalopram): Mice treated with saline spent significantly less time in open arms in comparison to other treatment groups
